Calls of active or inactive are those of the source. No cut-off for these calls is given here.
How the values were obtained:
[1] = system: H9c2; test: Cytotoxicity against rat H9c2 cells at 1 uM after 48 hrs by CCK-8 assay; type: cell-based; conditions: h9c2, 48 h
[2] = system: H9c2; test: Cardioprotective activity against rat H9c2 cells assessed as inhibition of doxorubicin-induced reduction in cell viability at 1 uM preincubated for 30 mins followed by doxorubicin treatment and measured after 48 hrs by CCK8 assay; type: functional, cell-based
[3] = system: H9c2; test: Cardioprotective activity against rat H9c2 cells assessed as inhibition of doxorubicin-induced reduction in cell viability at 0.5 uM preincubated for 30 mins followed by doxorubicin treatment and measured after 48 hrs by CCK8 assay; type: functional, cell-based

`CCC1=C[C@H]2CC[C@@]34C[C@]35CC[C@H](NC)C(C)(C)[C@@H]5C[C@H](OC(C)=O)[C@H]4[C@]2(C)CC1=O` was tested, and the Activity [1] was “Non-Toxic”.
`CN[C@@H](C)[C@H]1[C@H](O)C[C@@]2(C)[C@@H]3CC[C@H]4C(C)(C)[C@@H](NC)CC[C@]45C[C@@]35CC[C@]12C` was tested, and the Activity [1] was “Non-Toxic” and the Activity [2] was “Active”.
For `CCC1=C[C@H]2CC[C@@]34C[C@]35CC[C@H](N(C)C)[C@@H](C)[C@@H]5CC[C@H]4[C@]2(C)CC1=O`, the Activity [1] was “Non-Toxic”, the Activity [3] was “Active” and the Activity [2] was “Active”.
For `CCC1=CC2=CC[C@@]34C[C@]35CC[C@H](NC)C(C)(C)[C@@H]5CC[C@H]4[C@]2(C)CC1=O`, the Activity [1] was “Non-Toxic” and the Activity [3] was “Active”.
`C=C1[C@@H](NC)CC[C@@]23C[C@]24CC=C2C=C(CC)C(=O)C[C@@]2(C)[C@@H]4CC[C@@H]13` was tested, and the Activity [1] was “Non-Toxic” and the Activity [3] was “Active”.
In the case of `C=C1[C@@H](NC)CC[C@@]23C[C@]24CC[C@]2(O)C[C@H](CC)C(=O)C[C@@]2(C)[C@@H]4CC[C@@H]13`, the Activity [1] is reported as “Non-Toxic”, the Activity [3] is reported as “inactive” and the Activity [2] is reported as “inactive”.
`CC[C@H]1C=C2CC[C@@]34C[C@]35CC[C@H](NC)C(C)(C)[C@@H]5C=C[C@H]4[C@]2(C)C[C@@H]1O` was tested, and the Activity [1] was “Non-Toxic”.
`C=C1[C@@H](N(C)C)CC[C@@]23C[C@]24CC[C@]2(O)C[C@H](CC)C(=O)C[C@@]2(C)[C@@H]4CC[C@@H]13` was tested, and the Activity [1] was “Non-Toxic”, the Activity [3] was “inactive” and the Activity [2] was “inactive”.
`C/C=C1/C(=O)C[C@@]2(C)[C@@H]3CC[C@H]4C(C)(C)[C@@H](NC)CC[C@]45C[C@@]35CC[C@]12C` was tested, and the Activity [1] was “Non-Toxic” and the Activity [3] was “Active”.
`CCC1=C[C@H]2CC[C@@]34C[C@]35CC[C@H](NC)[C@@H](C)[C@@H]5CC[C@H]4[C@]2(C)CC1=O` was tested, and the Activity [1] was “Non-Toxic” and the Activity [3] was “Active”.
In the case of `C=C1[C@@H](NC)CC[C@@]23C[C@]24CC[C@@H]2C=C(CC)C(=O)C[C@@]2(C)[C@@H]4CC[C@@H]13`, the Activity [1] is reported as “Non-Toxic” and the Activity [3] is reported as “Active”.
With `CC[C@H]1C[C@@]2(O)CC[C@@]34C[C@]35CC[C@H](NC)C(C)(C)[C@@H]5CC[C@H]4[C@]2(C)CC1=O` the Activity [1] was “Non-Toxic”, the Activity [3] was “inactive” and the Activity [2] was “inactive”.
With `C=C1[C@@H](N(C)C)CC[C@@]23C[C@]24CC[C@]2(O)C=C(CC)C(=O)C[C@@]2(C)[C@@H]4CC[C@@H]13` the Activity [1] was “Non-Toxic”, the Activity [3] was “inactive” and the Activity [2] was “inactive”.
`C=C1[C@@H](NC)CC[C@@]23C[C@]24CCC2=C[C@](O)(CC)C(=O)C[C@@]2(C)[C@@H]4CC[C@@H]13` was tested, and the Activity [1] was “Non-Toxic”.
In the case of `CCC1=C[C@@]2(O)CC[C@@]34C[C@]35CC[C@H](NC)C(C)(C)[C@@H]5C=C[C@H]4[C@]2(C)CC1=O`, the Activity [1] is reported as “Non-Toxic”, the Activity [3] is reported as “inactive” and the Activity [2] is reported as “inactive”.
With `CCC1=C[C@H]2CC[C@@]34C[C@]35CC[C@H](NC)C(C)(C)[C@@H]5C=C[C@H]4[C@]2(C)CC1=O` the Activity [1] was “Non-Toxic” and the Activity [3] was “Active”.

Reference: ChEMBL document CHEMBL4414642, “Buxaustroines A-N, a Series of 17(13→18)abeo-Cycloartenol Triterpenoidal Alkaloids from Buxus austro-yunnanensis and Their Cardioprotective Activities” (J Nat Prod, 2019)
